*1 amine or outer side, *2 acyl side, *3 side chain or, on linkers, in order; H or OH if unused. Where a SMILES comes first, the peptide text is derived from it. Bridges are numbered along the chain shown (N, C = ends). [ ]: non-standard residue; d: D form. The star is where a group is joined. ξ: configuration not given here. Phe(3-CF3) = N[C@@H](Cc1cccc(C(F)(F)F)c1)C(=O)O; Phe(4-COOH) = N[C@@H](Cc1ccc(C(=O)O)cc1)C(=O)O; Bip = N[C@@H](Cc1ccc(-c2ccccc2)cc1)C(=O)O; NH(CH2)14COOH = O=C(O)CCCCCCCCCCCCCCN*; Phe(3-Me) = Cc1cccc(C[C@H](N)C(=O)O)c1; γGlu = O=C(O)[C@H](CCC(=O)[*:2])N[*:1]; NH(CH2)12COOH = O=C(O)CCCCCCCCCCCCN*; NMeAEEA = CN(CCOCCOCC(=O)[*:2])[*:1]; Val(3-OH) = CC(C)(O)[C@H](N)C(=O)O; aIle = CC[C@@H](C)[C@H](N)C(=O)O; 4Pal = N[C@@H](Cc1ccncc1)C(=O)O; 3Thi = N[C@@H](Cc1ccsc1)C(=O)O; Cha = N[C@@H](CC1CCCCC1)C(=O)O; Cit = NC(=O)NCCC[C@H](N)C(=O)O; Thr(3ξ) = CC(O)[C@H](N)C(=O)O; Carboxymethyl = O=C(O)C*; NMeA = CN[C@@H](C)C(=O)O; Orn = NCCC[C@H](N)C(=O)O; Aun = NCCCCCCCCCCC(=O)O; Dab = NCC[C@H](N)C(=O)O; Dap = NC[C@H](N)C(=O)O; AEEA = NCCOCCOCC(=O)O
biological target: T1, PD-1/PD-L1 interaction (PE-labeled human PD-L1-Ig binding to Jurkat cell line over-expressing human PD-1) (Homo sapiens, UniProt Q15116); assay: Jurkat-PD-1 Cell Binding High-Content Screening Assay (CBA); conditions: Jurkat-hPD-1 cells, PE-labeled PD-L1-Ig 20 nM final; read-out: Jurkat HPD1 PDL1 IC50
T1 construct: expressed in transfected cells; host or cells: Jurkat
T1 sequence (Q15116 25-288): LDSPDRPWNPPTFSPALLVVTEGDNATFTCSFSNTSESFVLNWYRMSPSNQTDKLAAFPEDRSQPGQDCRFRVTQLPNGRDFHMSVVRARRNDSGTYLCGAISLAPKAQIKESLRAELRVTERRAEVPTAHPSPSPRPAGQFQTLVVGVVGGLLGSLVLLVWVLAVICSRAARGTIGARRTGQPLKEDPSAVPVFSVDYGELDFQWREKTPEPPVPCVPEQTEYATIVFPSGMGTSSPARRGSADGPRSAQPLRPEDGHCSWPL
Method in brief: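 In this imaging assay, cells in 10% FCS medium see compound for 2 h at 37 °C and then labeled ligand at 20 nM final for 1 h. Paraformaldehyde fixation, Hoechst 33342 staining and dPBS washes precede image capture.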

Row | IC50 [nM] | Compound
1 | 32 | CC(C)C[C@@H]1NC(=O)[C@H](Cc2c[nH]c3ccccc23)NC(=O)[C@H](CC(=O)O)NC(=O)[C@H](Cc2ccc(C(=O)O)cc2)NC(=O)[C@H](Cc2ccc(OCC(=O)O)cc2)NC(=O)CSC[C@@H](C(=O)N[C@@H](CCCN)C(=O)NCCOCCOCC(=O)NCCCCCCCCCCC(=O)O)NC(=O)[C@H](CN)NC(=O)[C@H](C(C)C)NC(=O)[C@H](CC2CCCCC2)NC(=O)[C@H](CCN)NC(=O)[C@@H](CC(C)C)NC(=O)[C@H](C)N(C)C(=O)[C@H](C(C)C)NC(=O)[C@H](Cc2ccc(-c3ccccc3)cc2)NC1=O [Example 2134] ({CH2CO}-Y(Carboxymethyl)[Phe(4-COOH)]DWL[Bip]V[NMeA][dL][Dab][Cha]V[Dap]C[Orn][AEEA][Aun]-OH; thioether N-14)
2 | 37.1 | Cc1cccc(C[C@@H]2NC(=O)[C@H](CC(=O)O)NC(=O)[C@H](Cc3ccc(OCC(=O)O)cc3)NC(=O)[C@H](Cc3ccc(OCC(=O)O)cc3)NC(=O)CSC[C@@H](C(=O)N[C@@H](CO)C(=O)NCCCCCCCCCCC(=O)O)NC(=O)[C@H](C(C)O)NC(=O)[C@H](CN)NC(=O)[C@H](CC3CCCCC3)NC(=O)[C@H](CCN)NC(=O)[C@@H](CC(C)C)NC(=O)[C@H](C)N(C)C(=O)[C@H](CCCNC(=N)N)NC(=O)[C@H](Cc3ccc(-c4ccccc4)cc3)NC(=O)[C@H](C(C)C)NC2=O)c1 (stereo partly drawn) [Example 2384] ({CH2CO}-Y(Carboxymethyl)Y(Carboxymethyl)D[Phe(3-Me)]V[Bip]R[NMeA][dL][Dab][Cha][Dap][Thr(3ξ)]CS[Aun]-OH; thioether N-14)
3 | 34.7 | Cc1cccc(C[C@@H]2NC(=O)[C@H](CC(=O)O)NC(=O)[C@H](Cc3ccc(OCC(=O)O)cc3)NC(=O)[C@H](CCCNC(=N)N)NC(=O)CSC[C@@H](C(=O)N(C)CCOCCOCC(=O)NCCCCCCCCCCC(=O)O)NC(=O)[C@H](C(C)C)NC(=O)[C@H](C(C)C)NC(=O)[C@H](CC3CCCCC3)NC(=O)[C@H](CCN)NC(=O)[C@@H](CC(C)C)NC(=O)[C@H](C)N(C)C(=O)[C@H](CCCNC(N)=O)NC(=O)[C@H](Cc3ccc(-c4ccccc4)cc3)NC(=O)[C@H](C(C)C)NC2=O)c1 [Example 2356] ({CH2CO}-RY(Carboxymethyl)D[Phe(3-Me)]V[Bip][Cit][NMeA][dL][Dab][Cha]VVC[NMeAEEA][Aun]-OH; thioether N-14)
4 | 7 | Cc1cccc(C[C@@H]2NC(=O)[C@H](CC(=O)O)NC(=O)[C@H](Cc3ccc(OCC(=O)O)cc3)NC(=O)[C@H](CN)NC(=O)CSC[C@@H](C(=O)N[C@@H](CCN)C(=O)NCCOCCOCC(=O)NCCCCCCCCCCC(=O)O)NC(=O)[C@H](CCCN)NC(=O)[C@H](C(C)C)NC(=O)[C@H](CC3CCCCC3)NC(=O)[C@H](CCN)NC(=O)[C@@H](CC(C)C)NC(=O)[C@H](C)N(C)C(=O)[C@H](Cc3ccc(O)cc3)NC(=O)[C@H](Cc3ccc(-c4ccccc4)cc3)NC(=O)[C@H](C(C)C)NC2=O)c1 [Example 1314] ({CH2CO}-[Dap]Y(Carboxymethyl)D[Phe(3-Me)]V[Bip]Y[NMeA][dL][Dab][Cha]V[Orn]C[Dab][AEEA][Aun]-OH; thioether N-14)
5 | 48.9 | CC[C@@H](C)[C@@H]1NC(=O)[C@H](Cc2ccc(-c3ccccc3)cc2)NC(=O)[C@H](C(C)C)NC(=O)[C@H](Cc2c[nH]c3ccccc23)NC(=O)[C@H](CC(=O)O)NC(=O)[C@H](Cc2ccc(C(=O)O)cc2)NC(=O)[C@H](Cc2ccc(OCC(=O)O)cc2)NC(=O)CSC[C@@H](C(=O)N[C@@H](CC(N)=O)C(=O)NCCOCCOCC(=O)N[C@@H](CCC(=O)NCCOCCOCC(=O)N[C@@H](CCC(=O)NCCOCCOCC(=O)N[C@@H](CCCN)C(=O)NCCCCCCCCCCC(=O)O)C(=O)O)C(=O)O)NC(=O)[C@H](CO)NC(=O)[C@H](C(C)C)NC(=O)[C@H](CC2CCCCC2)NC(=O)[C@H](CC(N)=O)NC(=O)[C@@H](CC(C)C)NC(=O)[C@H](C)N(C)C1=O [Example 2021] ({CH2CO}-Y(Carboxymethyl)[Phe(4-COOH)]DWV[Bip][aIle][NMeA][dL]N[Cha]VSCN[AEEA][γGlu][AEEA][γGlu][AEEA][Orn][Aun]-OH; thioether N-14)
6 | 25 | Cc1cccc(C[C@@H]2NC(=O)[C@H](CC(=O)O)NC(=O)[C@H](Cc3ccc(C(=O)O)cc3)NC(=O)[C@H](Cc3ccc(OCC(=O)O)cc3)NC(=O)CSC[C@@H](C(=O)NCCCCCCCCCCC(=O)O)NC(=O)[C@H](CCCNC(N)=O)NC(=O)[C@H](C(C)C)NC(=O)[C@H](CC3CCCCC3)NC(=O)[C@H](CCN)NC(=O)[C@@H](CC(C)C)NC(=O)[C@H](C)N(C)C(=O)[C@H](CC(C)C)NC(=O)[C@H](Cc3ccc(-c4ccccc4)cc3)NC(=O)[C@H](CC(C)C)NC2=O)c1 [Example 2245] ({CH2CO}-Y(Carboxymethyl)[Phe(4-COOH)]D[Phe(3-Me)]L[Bip]L[NMeA][dL][Dab][Cha]V[Cit]C[Aun]-OH; thioether N-14)
7 | 13.7 | CC(C)C[C@H]1NC(=O)[C@H](C)N(C)C(=O)[C@H](CCCNC(N)=O)NC(=O)[C@H](Cc2ccc(-c3ccccc3)cc2)NC(=O)[C@H](Cc2ccc(C(=O)O)cc2)NC(=O)[C@H](Cc2cccc(C(F)(F)F)c2)NC(=O)[C@H](CC(=O)O)NC(=O)[C@H](Cc2ccc(OCC(=O)O)cc2)NC(=O)[C@H](Cc2ccc(C(=O)O)cc2)NC(=O)CSC[C@@H](C(=O)N[C@@H](CCN)C(=O)NCCCCCCCCCCCCC(=O)O)NC(=O)[C@H](CC(=O)O)NC(=O)[C@H](C(C)(C)O)NC(=O)[C@H](CC2CCCCC2)NC(=O)[C@H](CCN)NC1=O [Example 1146] ({CH2CO}-[Phe(4-COOH)]Y(Carboxymethyl)D[Phe(3-CF3)][Phe(4-COOH)][Bip][Cit][NMeA][dL][Dab][Cha][Val(3-OH)]DC[Dab]-{NH(CH2)12COOH}; thioether N-14)
8 | 379 | Cc1cccc(C[C@@H]2NC(=O)[C@H](CC(=O)O)NC(=O)[C@H](Cc3ccc(OCC(=O)O)cc3)NC(=O)[C@H]([C@@H](C)O)NC(=O)CSC[C@@H](C(=O)N[C@H](C)C(=O)NCCOCCOCC(=O)NCCCCCCCCCCC(=O)O)NC(=O)[C@H](CCC(=O)O)NC(=O)[C@H](C(C)(C)O)NC(=O)[C@H](CC3CCCCC3)NC(=O)[C@H](CCN)NC(=O)[C@@H](CC(C)C)NC(=O)[C@H](C)N(C)C(=O)[C@H](Cc3ccc(OCC(=O)O)cc3)NC(=O)[C@H](Cc3ccc(-c4ccccc4)cc3)NC(=O)[C@H](Cc3ccc(OCC(=O)O)cc3)NC2=O)c1 [Example 1417] ({CH2CO}-TY(Carboxymethyl)D[Phe(3-Me)]Y(Carboxymethyl)[Bip]Y(Carboxymethyl)[NMeA][dL][Dab][Cha][Val(3-OH)]EC[dA][AEEA][Aun]-OH; thioether N-14)

same assay, conditions: PE-labeled PD-L1-Ig 20 nM final, Jurkat-hPD-1 cells; read-out: Jurkat HPD1 PDL1 IC50

Row | IC50 [nM] | Compound
9 | 47 | CC(=O)NCCCC[C@@H]1NC(=O)[C@H](C(C)(C)O)NC(=O)[C@H](CC2CCCCC2)NC(=O)[C@H](CCN)NC(=O)[C@@H](CC(C)C)NC(=O)[C@H](C)N(C)C(=O)[C@H](CCC(N)=O)NC(=O)[C@H](Cc2ccc(-c3ccccc3)cc2)NC(=O)[C@H](Cc2ccc(C(=O)O)cc2)NC(=O)[C@H](Cc2cccc(C(F)(F)F)c2)NC(=O)[C@H](CC(=O)O)NC(=O)[C@H](Cc2ccc(OCC(=O)O)cc2)NC(=O)[C@H](Cc2ccc(OCC(=O)O)cc2)NC(=O)CSC[C@@H](C(=O)N[C@@H](CCN)C(=O)NCCOCCOCC(=O)N[C@@H](CCC(=O)NCCOCCOCC(=O)NCCCCCCCCCCCCCCC(=O)O)C(=O)O)NC1=O [Example 2652] ({CH2CO}-Y(Carboxymethyl)Y(Carboxymethyl)D[Phe(3-CF3)][Phe(4-COOH)][Bip]Q[NMeA][dL][Dab][Cha][Val(3-OH)]K(Ac)C[Dab][AEEA][γGlu][AEEA]-{NH(CH2)14COOH}; thioether N-14)
10 | 13.2 | CC(C)C[C@@H]1NC(=O)[C@H](Cc2c[nH]c3ccccc23)NC(=O)[C@H](CC(=O)O)NC(=O)[C@H](Cc2ccc(OCC(=O)O)cc2)NC(=O)[C@H](Cc2ccsc2)NC(=O)CSC[C@@H](C(=O)N[C@@H](CCN)C(=O)NCCOCCOCC(=O)NCCCCCCCCCCC(=O)O)NC(=O)[C@H](CCC(=O)O)NC(=O)[C@H](C(C)(C)O)NC(=O)[C@H](CC2CCCCC2)NC(=O)[C@H](CCN)NC(=O)[C@@H](CC(C)C)NC(=O)[C@H](C)N(C)C(=O)[C@H](CCC(N)=O)NC(=O)[C@H](Cc2ccc(-c3ccccc3)cc2)NC1=O [Example 2504] ({CH2CO}-[3Thi]Y(Carboxymethyl)DWL[Bip]Q[NMeA][dL][Dab][Cha][Val(3-OH)]EC[Dab][AEEA][Aun]-OH; thioether N-14)
11 | 253 | Cc1cccc(C[C@@H]2NC(=O)[C@H](CC(=O)O)NC(=O)[C@H](Cc3ccc(OCC(=O)O)cc3)NC(=O)[C@H](Cc3ccncc3)NC(=O)CSC[C@@H](C(=O)N[C@@H](CCN)C(=O)NCCOCCOCC(=O)NCCOCCOCC(=O)NCCCCCCCCCCC(=O)O)NC(=O)[C@H](CCC(=O)O)NC(=O)[C@H](C(C)C)NC(=O)[C@H](CC3CCCCC3)NC(=O)[C@H](CCN)NC(=O)[C@@H](CC(C)C)NC(=O)[C@H](C)N(C)C(=O)[C@H](Cc3ccc(C(=O)O)cc3)NC(=O)[C@H](Cc3ccc(-c4ccccc4)cc3)NC(=O)[C@H](Cc3ccc(C(=O)O)cc3)NC2=O)c1 [Example 2501] ({CH2CO}-[4Pal]Y(Carboxymethyl)D[Phe(3-Me)][Phe(4-COOH)][Bip][Phe(4-COOH)][NMeA][dL][Dab][Cha]VEC[Dab][AEEA][AEEA][Aun]-OH; thioether N-14)
12 | 2.5 | CC(C)C[C@H]1NC(=O)[C@H](C)N(C)C(=O)[C@H](Cc2ccc(C(=O)O)cc2)NC(=O)[C@H](Cc2ccc(-c3ccccc3)cc2)NC(=O)[C@H](Cc2ccc(C(=O)O)cc2)NC(=O)[C@H](Cc2cccc(C(F)(F)F)c2)NC(=O)[C@H](CC(=O)O)NC(=O)[C@H](Cc2ccc(C(=O)O)cc2)NC(=O)[C@H](Cc2ccc(OCC(=O)O)cc2)NC(=O)CSC[C@@H](C(=O)N[C@@H](CCN)C(=O)NCCCCCCCCCCC(=O)O)NC(=O)[C@H](CO)NC(=O)[C@H](C(C)(C)O)NC(=O)[C@H](CC2CCCCC2)NC(=O)[C@H](CCN)NC1=O [Example 2585] ({CH2CO}-Y(Carboxymethyl)[Phe(4-COOH)]D[Phe(3-CF3)][Phe(4-COOH)][Bip][Phe(4-COOH)][NMeA][dL][Dab][Cha][Val(3-OH)]SC[Dab][Aun]-OH; thioether N-14)

— patent publication US20260070945A1, “MACROCYCLIC IMMUNOMODULATORS” (Bristol-Myers Squibb Company, priority 2022, published 2026)
